# Results reported in ChEMBL document CHEMBL1201862, “PubChem BioAssay data set” (2004).
# Activity calls are given as the source filed them.
# Columns and labels:
# [1] = target: T1, Polyadenylate-binding protein 1 (Homo sapiens, UniProt P11940); assay: MLLE domain peptide-binding blockers, IC50 – biochemical, fluorescence polarization, FITC-PAM2 peptide, dose response (AID 602259); format: functional; settings: read-out: IC50_Mean
# [2] = target: T1, Polyadenylate-binding protein 1; assay: MLLE binding blockers, Cy5 peptide tracer – biochemical, fluorescence polarization, Cy5-PAM2 peptide, secondary, miRNA deadenylation inhibitor project, dose response (AID 602260); format: functional; settings: read-out: IC50_Mean
# [3] = target: T2, Corticotropin-releasing factor receptor 2/Corticotropin-releasing factor-binding protein (Homo sapiens, UniProt P24387+Q13324); assay: Dose Response confirmation of uHTS hits for small molecule antagonists of the CRF-binding protein and CRF-R2 receptor complex.; format: functional; settings: read-out: IC50_Mean
# T2 sequence (Q13324 whole entry): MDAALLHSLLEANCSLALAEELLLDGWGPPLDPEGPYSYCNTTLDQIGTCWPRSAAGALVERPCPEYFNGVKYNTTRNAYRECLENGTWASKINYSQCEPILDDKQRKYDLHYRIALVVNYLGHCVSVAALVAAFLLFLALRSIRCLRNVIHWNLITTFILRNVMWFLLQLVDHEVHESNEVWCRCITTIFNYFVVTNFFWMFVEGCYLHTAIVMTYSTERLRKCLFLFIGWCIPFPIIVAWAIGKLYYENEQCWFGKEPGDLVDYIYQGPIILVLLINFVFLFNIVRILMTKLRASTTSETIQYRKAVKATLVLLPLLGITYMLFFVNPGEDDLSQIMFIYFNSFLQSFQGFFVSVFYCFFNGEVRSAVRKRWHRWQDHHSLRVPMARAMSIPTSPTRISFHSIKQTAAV
# T2 sequence (P24387 whole entry): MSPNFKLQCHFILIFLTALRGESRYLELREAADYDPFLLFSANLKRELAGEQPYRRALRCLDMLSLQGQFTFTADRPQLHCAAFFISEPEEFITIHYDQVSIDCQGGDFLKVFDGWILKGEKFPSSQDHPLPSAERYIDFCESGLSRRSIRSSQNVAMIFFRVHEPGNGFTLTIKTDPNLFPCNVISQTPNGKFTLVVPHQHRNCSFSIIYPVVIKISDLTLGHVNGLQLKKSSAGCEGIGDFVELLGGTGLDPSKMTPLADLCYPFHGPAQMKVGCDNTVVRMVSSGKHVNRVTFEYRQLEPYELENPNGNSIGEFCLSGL
# [4] = target: T2, Corticotropin-releasing factor receptor 2/Corticotropin-releasing factor-binding protein; assay: activators of CRF receptor 2 with binding protein – uHTS hits, confirmation (AID 602473); format: functional; settings: read-out: EC50_Mean
# [5] = target: T3, Heat shock factor protein 1 (Mus musculus, UniProt P38532); assay: enhancement of HSF1-driven luciferase signal – cell-based, NIH3T3, luminescence, dose retest, confirmation (AID 435004); format: functional;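 note: stress induced by proteasome inhibitor MG132 added 30 min after compound; luciferase reporter driven by HSF1 response element in NIH3T3 cells; actives raise luminescence as potentiators of the MG132 stress response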
# T3 sequence (P38532 whole entry): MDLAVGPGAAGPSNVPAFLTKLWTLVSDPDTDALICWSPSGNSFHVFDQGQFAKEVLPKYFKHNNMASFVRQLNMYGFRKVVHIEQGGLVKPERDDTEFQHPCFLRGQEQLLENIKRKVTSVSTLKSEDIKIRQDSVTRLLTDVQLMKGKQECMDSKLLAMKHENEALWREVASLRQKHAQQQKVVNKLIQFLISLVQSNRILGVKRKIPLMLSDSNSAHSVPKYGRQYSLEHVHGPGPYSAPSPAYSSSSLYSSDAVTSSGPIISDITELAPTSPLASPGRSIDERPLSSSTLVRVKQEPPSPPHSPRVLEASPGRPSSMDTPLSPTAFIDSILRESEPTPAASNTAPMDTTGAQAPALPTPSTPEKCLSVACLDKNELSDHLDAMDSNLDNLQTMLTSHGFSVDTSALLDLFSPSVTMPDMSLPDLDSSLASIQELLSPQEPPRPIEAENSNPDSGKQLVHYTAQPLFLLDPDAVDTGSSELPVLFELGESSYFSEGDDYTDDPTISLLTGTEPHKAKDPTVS
# [6] = cells; format: functional
# [7] = target: FAD-linked sulfhydryl oxidase ALR (Homo sapiens, UniProt P55789); assay: ALR-catalysed DTT oxidation blockers – biochemical, H2O2 detection, luminescence, cherry-pick, dose response (AID 493248)
# Chain of FAD-linked sulfhydryl oxidase ALR (P55789 whole entry): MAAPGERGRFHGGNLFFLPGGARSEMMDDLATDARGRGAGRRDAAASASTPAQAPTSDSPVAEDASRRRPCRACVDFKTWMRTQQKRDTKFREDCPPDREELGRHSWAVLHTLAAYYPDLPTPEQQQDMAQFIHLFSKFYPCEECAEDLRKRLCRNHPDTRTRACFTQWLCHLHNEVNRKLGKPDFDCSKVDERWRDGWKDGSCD
# [8] = NIH3T3 cell viability loss – ATP luminescence, mouse fibroblasts, counter-screen, dose response (AID 2010); format: functional, cell-based;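 note: cells exposed to compound for about 90 hours before reading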
# [9] = viability of HCT116 lacking mutant beta-catenin – cell-based, human colon tumor, dose response (AID 1045); format: functional;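 note: HCT116 colon tumor cells with beta catenin knocked out; cells exposed to compound for 60 hours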
# [10] = Trypanosoma cruzi growth suppression in host cells – NIH3T3 host cells, beta-gal luminescence, confirmation (AID 2044); format: functional, cell-based;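 note: intracellular parasites grown in NIH/3T3 mouse fibroblasts as host cells; luminescent beta-galactosidase reporter signal from transgenic T. cruzi replicating inside host cells; inhibitors lower the luminescence signal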
# [11] = viability of PTEN-deleted HCT116 cells – cell-based, HCT116 PTEN knockout, dose response (AID 1047); format: functional;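 note: HCT116 colon tumor cells with PTEN knocked out; cells exposed to compound for 60 hours before readout; potency for loss of cell viability measured by luminescence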
# [12] = system: H9c2; assay: cells; format: functional, cell-based; settings: Rattus norvegicus, H9c2, Myocardium;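 note: confirmatory concentration-response retest of ultra-high-throughput screening hits for modulation of myocardial damage; cell death induced by hydrogen peroxide oxidative stress; compound pretreatment for 60 min then peroxide exposure for 2 h; potency is for protecting the cells against peroxide damage rather than for killing them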
# [13] = target: Paired box protein Pax-8 (Homo sapiens, UniProt Q06710); assay: PAX8 transcriptional activity inhibition in RMG-I – RMG-I cells, luciferase, cherry-pick, dose response (AID 687027); format: functional, cell-based;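 note: luciferase reporter driven by Pax8 target thyroperoxidase promoter measured by SteadyGlo luminescence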
# Chain of Paired box protein Pax-8 (Q06710 whole entry): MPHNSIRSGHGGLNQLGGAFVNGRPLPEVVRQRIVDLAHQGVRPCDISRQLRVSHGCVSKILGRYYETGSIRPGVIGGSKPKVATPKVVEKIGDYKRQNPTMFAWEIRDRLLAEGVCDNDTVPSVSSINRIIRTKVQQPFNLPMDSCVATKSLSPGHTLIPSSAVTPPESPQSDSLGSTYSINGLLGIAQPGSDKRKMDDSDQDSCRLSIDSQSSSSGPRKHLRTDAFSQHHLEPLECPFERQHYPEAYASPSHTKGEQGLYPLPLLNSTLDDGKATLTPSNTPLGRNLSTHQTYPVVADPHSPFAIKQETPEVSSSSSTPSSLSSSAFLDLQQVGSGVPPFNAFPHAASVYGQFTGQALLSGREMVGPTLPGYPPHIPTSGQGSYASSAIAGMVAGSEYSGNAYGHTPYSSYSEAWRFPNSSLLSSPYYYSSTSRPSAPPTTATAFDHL
# T1 sequence (P11940 whole entry, the tested form may be a part): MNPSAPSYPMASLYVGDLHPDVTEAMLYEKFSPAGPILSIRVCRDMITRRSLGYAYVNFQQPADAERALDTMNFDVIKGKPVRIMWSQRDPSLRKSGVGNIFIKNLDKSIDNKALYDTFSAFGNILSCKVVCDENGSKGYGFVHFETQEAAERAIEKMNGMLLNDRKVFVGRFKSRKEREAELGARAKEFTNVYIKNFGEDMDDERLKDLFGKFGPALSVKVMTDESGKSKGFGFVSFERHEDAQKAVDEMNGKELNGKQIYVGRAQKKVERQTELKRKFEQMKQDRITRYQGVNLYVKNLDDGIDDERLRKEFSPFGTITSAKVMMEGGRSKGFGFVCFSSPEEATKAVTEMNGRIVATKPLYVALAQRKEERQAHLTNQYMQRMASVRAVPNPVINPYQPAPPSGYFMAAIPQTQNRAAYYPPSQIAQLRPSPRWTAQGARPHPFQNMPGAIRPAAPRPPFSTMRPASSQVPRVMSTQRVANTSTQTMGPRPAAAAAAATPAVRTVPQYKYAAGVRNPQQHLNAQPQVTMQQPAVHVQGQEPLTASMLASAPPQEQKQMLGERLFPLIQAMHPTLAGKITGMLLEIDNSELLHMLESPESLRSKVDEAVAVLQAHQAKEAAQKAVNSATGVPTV
smiles,measurement,setting,value
Cc1ccc(NC(=O)CSC2=NCCN2)cc1,IC50,[1],> 66 µM (inactive)
same,IC50,[2],> 66 µM (inactive)
CCCS(=O)(=O)N1CCC(C(=O)NCCCOC(C)C)CC1,IC50,[3],> 47.1 µM (inactive)
same,EC50,[4],> 53 µM (inactive)
C=CCNCCOCCSc1ccc(Cl)cc1,EC50,[5],> 260 µM (inactive)
CC(C)(O)C#Cc1ccc(C(=O)Nc2ccc3c(c2)OCO3)s1,IC50,[6],5 µM (active)
O=C1CC(NNc2ccccc2)C(=O)N1c1ccccc1 (stereo not given),AC50,[7],0.382 µM (active)
same,EC50,[5],> 260 µM (inactive)
COCC(C)NC(=O)/C(=C/c1ccccc1)c1ccccc1 (stereo not given),EC50,[5],> 260 µM (inactive)
NCCc1nnc(SCc2ccc(F)cc2)o1,EC50,[5],> 260 µM (inactive)
CCCCCn1c(N)c(-c2nc3ccccc3s2)c2c([N+](=O)[O-])nn(C)c(=O)c21,EC50,[8],> 60 µM (not active)
same,EC50,[9],12.5 µM (active)
same,EC50,[10],2.14 µM (active)
same,EC50,[11],10.1 µM (active)
O=C(Oc1cccc2c(O)nccc12)c1ccccc1,IC50,[12],> 79 µM (inactive)
c1ccc(SCCOCCN2CCOCC2)cc1,EC50,[5],> 260 µM (inactive)
CC1CN(C(=O)CS(=O)(=O)Cc2ccccc2)CC(C)O1 (stereo not given),EC50,[5],> 260 µM (inactive)
Cc1ccc(N2CC(C(=O)NCc3nnc(O)c4ccccc34)CC2=O)cc1C (stereo not given),IC50,[12],> 79 µM (inactive)
CN(C(=O)CCS(=O)(=O)c1ccc2c(c1)oc(=O)n2C)C1CCCCC1,IC50,[3],> 47.1 µM (inactive)
same,EC50,[4],> 53 µM (inactive)
O=C(C[C@@H]1C/C=C/CC[C@@H](Cc2ccc(F)cc2)C(=O)O[C@@H](c2ccccc2)CNC1=O)NCCO,IC50,[12],11.4 µM (active)
COc1cccc(COC(=O)CCNC(=O)c2ccc(Cl)cc2)c1OC,IC50,[6],25.5 µM (active)
COc1ccccc1N1CCN(C(=O)C(=O)c2cn(CC(=O)N3CCCC3)c3ccccc23)CC1,IC50,[3],> 47.1 µM (inactive)
same,EC50,[4],> 53 µM (inactive)
O=C(CCc1nc(O)c2ccccc2n1)N1CCN(S(=O)(=O)c2ccc(F)cc2)CC1,IC50,[12],> 79 µM (inactive)
CC(=O)c1ccc(NC(=O)C(C)OC(=O)c2ccc(Br)o2)cc1 (stereo not given),IC50,[3],> 47.1 µM (inactive)
same,EC50,[4],> 53 µM (inactive)
CC(C)(C)OC(=O)N1CCCN(C(=O)Nc2cccc(Cl)c2)CC1,IC50,[3],> 47.1 µM (inactive)
same,EC50,[4],> 53 µM (inactive)
Cc1ccc(OCC(=O)Nc2ccc([N+](=O)[O-])cn2)cc1C,IC50,[3],> 47.1 µM (inactive)
same,EC50,[4],> 53 µM (inactive)
Cc1ccccc1/N=C/c1cc2c(cc1[N+](=O)[O-])OCO2,IC50,[12],> 79 µM (inactive)
CN(C)S(=O)(=O)c1ccc(Cl)c(NC(=O)CNC2(C)CCS(=O)(=O)C2)c1 (stereo not given),IC50,[3],> 47.1 µM (inactive)
same,EC50,[4],> 53 µM (inactive)
O=C1CSC(=S)N1/N=C/c1cccnc1,IC50,[1],> 66 µM (inactive)
same,IC50,[2],> 66 µM (inactive)
C[C@@H]1CCCCO[C@@H](CN(C)CC2CCCCC2)[C@@H](C)CN([C@@H](C)CO)C(=O)c2cc(NC(=O)Nc3ccc(C(F)(F)F)cc3)ccc2O1,AC50,[13],12 µM (active)
C[C@@H]1CN([C@H](C)CO)C(=O)c2cc(NC(=O)c3ccccc3)ccc2O[C@@H](C)CCCCO[C@H]1CN(C)Cc1ccc(C(F)(F)F)cc1,AC50,[13],3.09 µM (active)
CS(=O)(=O)N(CC(=O)N/N=C/c1cc([N+](=O)[O-])ccc1Cl)c1ccccc1,EC50,[9],24.4 µM (active)
same,EC50,[11],26.4 µM (active)
